From article PMC7664216, “An Odorant Binding Protein (SaveOBP9) Involved in Chemoreception of the Wheat Aphid Sitobion avenae” (International Journal of Molecular Sciences, 2020)
pIC50, pKi: −log10 of the molar value. “Also recorded” adds a separate entry of the source. Like-named read-outs stand apart in the source and are kept apart here.

How the values were obtained:
[1] = molecular target: SaveOBP9 (Sitobion avenae, UniProt A0A1I9ZLB6); test: Fluorescence competitive ligand binding assay with probe 1-NPN; conditions: 1-NPN probe
Chain of SaveOBP9 (A0A1I9ZLB6 entry or part of it): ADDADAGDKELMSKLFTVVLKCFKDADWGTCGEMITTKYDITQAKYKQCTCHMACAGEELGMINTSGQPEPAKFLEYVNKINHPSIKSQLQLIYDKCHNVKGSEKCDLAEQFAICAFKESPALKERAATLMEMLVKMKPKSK
Experimental: Methanol (spectrophotometric-grade) was used to prepare the standard solution of each tested ligand (Sigma Aldrich, St. Louis, MO, USA). The binding ability of 1-NPN was measured by adding 1-NPN (1 mM) into protein solution (2 μM L^−1) diluted with Tris-HCl (30 mM), and the final concentration was made to 0 to 20 μM L^−1 at room temperature.
The ligand’s binding with SaveOBP9 was conducted with three independent replicates.

[2] = tested on: Sitobion avenae; test: Y-tube olfactometer behavioral bioassay; format: in vivo; conditions: for Behavioral response of S. avenae: wingless adults, odor 0.10% (v/v) vs liquid paraffin control, pre-RNAi; for Post-RNAi behavioral response of S. avenae: after 3 days of dsSaveOBP9 feeding (50 ng/µL), compared to dsGFP and Control
Text: Behavioral responses of Sitobion avenae were examined by using a glass Y-tube olfactometer (base = 2.0 cm diameter by 14 cm length, arms = 2.0 cm diameter by 13 cm length) using 7 different volatile compounds (Sigma-Aldrich, St. Louis, MO, USA). Air was passed through the activated charcoal for filtration at the continuous rate of 0.5 L/min and humidified using deionized water followed by the splitting of air between two arms of the olfactometer. One arm contained liquid paraffin (control) and the other had the test ligand. In addition, both chambers were connected to the central arm of the Y-tube. An aliquot of odors and liquid paraffin were loaded on with the concentration of 0.10% (v/v). Aphids were then placed in the trunk. Each insect was allowed 15 min to respond to the treatment, and the numbers of aphids showing attraction, repulsion, or no response were counted. Three replications (20 wingless aphids in each replication) for each group were applied.
Y-tube bioassays were carried out before and after dietary RNAi application to confirm the SaveOBP9 gene-silencing outcome. Two treatments containing liquid paraffin and seven compounds (Ki < 10 μM), 2-ethyl1-hexanol, decanal, tetradecane, hexadecane, octanal, α-farnesene, and hexanal, were used. Three treatments containing Control, dsGFP feeding and dsRNA feeding were tested in behavioral trials after 3 days of feeding. For the post-RNAi bioassays, individuals were tested using the compounds: Tetradecane, octanal, decanal, and hexadecane. These four ligands were carefully chosen based on the observation of significant responses of S.avenae to these compounds in bioassays performed prior to the application of dietary RNAi.

[3] = tested on: AlinOBP1; set-up: method as in PMID 21541988; conditions: cited from earlier work
[4] = tested on: SaveOBP3; set-up: method as in PMID 22306433; conditions: cited from earlier work
[5] = tested on: SaveOBP7; set-up: method as in PMID 22306433; conditions: cited from earlier work
[6] = tested on: Aphis fabae; set-up: method as in PMID 18584254; conditions: Black bean aphid Aphis fabae; cited from earlier work
[7] = tested on: SaveOBP2; set-up: method as in PMID 22306433; conditions: cited from earlier work

pIC50 ([1]; pH 5.0, read-out: IC50)	pKi ([1]; pH 5.0, read-out: Ki)	pIC50 ([1]; pH 7.4, read-out: IC50)	pKi ([1]; pH 7.4, read-out: Ki)	Compound	pIC50 ([1]; IC50, pH 5.0)	pIC50 ([1]; IC50, pH 7.4)	pKi ([1]; Ki, pH 5.0)	pKi ([1]; Ki, pH 7.4)	further results
4.76	4.80	4.32	4.37	CC12CCC(CC1=O)C2(C)C (racemic) [(±)-Camphor]					
4.40	4.44	4.83	4.88	CC1=CCC2C(C1)C2(C)C (single isomer, unassigned; (+)) [(+)-3-Carene]					
4.47	4.51	4.62	4.67	C=CC(O)CCCCC (centres unmarked) [1-Octen-3-ol]					
4.36	4.40	4.95	5.00	CCCCC(CC)CO (centres unmarked) [2-Ethyl-1-hexanol]					Behavioral response of S. avenae [2]: did not show stimuli; Binding affinity [3]: high binding affinity
				C=CCCN=C=S [3-Butenyl isothiocyanate]	4.58	4.28	4.62	4.33	
4.51	4.56	4.89	4.94	CC(=O)c1ccccc1 [Acetophenone]					
				O=Cc1ccccc1 [Benzaldehyde]	4.39	3.96	4.43	4.02	
5.06	5.10	4.34	4.39	Cc1cc(C(C)(C)C)c(O)c(C(C)(C)C)c1 [Butylated Hydroxytoluene]					
4.70	4.75	5.00	5.05	CCCCCCCCCC=O [Decanal]					Post-RNAi behavioral response of S. avenae [2]: non-significant preference; Behavioral response of S. avenae [2]: significantly showed attractive responses; also recorded: strongly attracted S. avenae; Binding ability [4]: None of the three SaveOBPs have the ability to bind; Binding ability [5]: None of the three SaveOBPs have the ability to bind; EAG response [6]: significant electroantennography (EAG) response; Binding ability [7]: None of the three SaveOBPs have the ability to bind
4.83	4.88	4.96	5.01	CCCCCCCCCCCCCCCC [Hexadecane]					Post-RNAi behavioral response of S. avenae [2]: non-significant preference; Behavioral response of S. avenae [2]: significantly showed attractive responses; also recorded: strongly attracted S. avenae; Binding ability [4]: None of the three SaveOBPs have the ability to bind; Binding ability [5]: None of the three SaveOBPs have the ability to bind; Binding ability [7]: None of the three SaveOBPs have the ability to bind
				CCCCCC=O [Hexanal]	4.77	5.08	4.82	5.14	Behavioral response of S. avenae [2]: did not show stimuli
				C=CC(C)(O)CCC=C(C)C (centres unmarked) [Linalool]	4.93	4.62	4.97	4.67	
				COC(=O)c1ccccc1O [Methyl salicylate]	4.62	4.87	4.66	4.92	
				c1ccc2ccccc2c1 [Naphthalene]	4.52	4.89	4.56	4.94	
4.91	4.95	4.40	4.45	CCCCCCCCC=O [Nonanal]					
4.69	4.74	5.06	5.11	CCCCCCCC=O [Octanal]					Post-RNAi behavioral response of S. avenae [2]: non-significant preference; Behavioral response of S. avenae [2]: significantly showed attractive responses; also recorded: strongly attracted S. avenae; Binding ability [4]: relatively moderate binding ability; Binding ability [5]: no binding ability; EAG response [6]: significant electroantennography (EAG) response; Binding ability [7]: relatively moderate binding ability
4.82	4.86	4.89	4.94	CCCCCCCCCCCCCCC [Pentadecane]					
4.93	4.97	5.10	5.15	CCCCCCCCCCCCCC [Tetradecane]					Post-RNAi behavioral response of S. avenae [2]: non-significant preference; Behavioral response of S. avenae [2]: significantly showed attractive responses; also recorded: strongly attracted S. avenae
				CC/C=C\CCO [cis-3-Hexen-1-ol]	4.43	4.88	4.48	4.93	
		4.53	4.58	CC/C=C\CCOC(C)=O [cis-3-Hexenyl acetate]					
				CCC/C=C/C=O [trans-2-Hexen-1-al]	4.67	4.38	4.71	4.43	
				CCC/C=C/CO [trans-2-Hexen-1-ol]	4.66	4.84	4.71	4.89	
				C=CC(=C)CC/C=C(\C)CCC=C(C)C [trans-β-farnesene]					Binding ability [4]: could bind; Binding ability [5]: could bind
5.02	5.07	4.99	5.04	C=C/C(C)=C/C/C=C(\C)CCC=C(C)C [α-Farnesene]					Behavioral response of S. avenae [2]: did not show stimuli
				CC1=CCC2CC1C2(C)C (stereo not drawn) [α-Pinene]	4.57	4.42	4.61	4.47	
				CC1=CC[C@@H](C(C)(C)O)CC1 [α-Terpineol]	4.43	4.58	4.47	4.63	
				C=C1CCC2CC1C2(C)C (stereo not drawn) [β -Pinene]	4.56	4.43	4.60	4.48	
				C=C1CC/C=C(\C)CC[C@@H]2[C@@H]1CC2(C)C [β-Caryophyllene]	3.21	4.28	3.25	4.33	
4.97	5.01	4.91	4.97	C=CC(=C)CCC=C(C)C [β-Myrcene]					

Compound	pIC50 ([1]; pH 5.0, read-out: IC50)	pKi ([1]; pH 5.0, read-out: Ki)	pIC50 ([1]; pH 7.4, read-out: IC50)	pKi ([1]; pH 7.4, read-out: Ki)	pIC50 ([1]; IC50, pH 5.0)	pIC50 ([1]; IC50, pH 7.4)	pKi ([1]; Ki, pH 5.0)	pKi ([1]; Ki, pH 7.4)	further results
C=C(C)[C@@H]1CC=C(C)CC1 [S-(−)-Limonene]	4.94	4.98	4.49	4.54					
(+)-Limonene oxide	4.43	4.47	4.61	4.67					
